≈ marks a conversion by molar mass, not a printed value. Where “and” joins values, the source holds several entries; their conditions need not be identical. Equal values may be shown once. Read-outs that look alike come from different tables or passages of the source.
Assays:
[1] = system: HeLa cells; assay: Activity on HeLa cells cloning efficiency in vitro; assay type: cell-based; settings: for ID50 / IC50: several values = separate experiments; for ID50: 1440 min; for activity on HeLa cells cloning efficiency in vitro (in words): compared with daunorubicin; for activity at 0.1 µg/mL: dose 100 ng/ml
Source text: Activity on HeLa cells cloning efficiency in vitro. Treatment

[2] = system: P388 ascitic leukemia; assay: Activity against P388 ascitic leukemia; assay type: in vivo, mice; settings: for T/C (median survival time of treated mice/median survival time of controls) / Toxicity deaths: day 1 after tumor inoculation
Description: As regards the in vivo tests, preliminary experiments were carried out on P388 ascitic leukemia.
Activity against P388 ascitic leukemia. Treatment i.p. on day
1 after tumor inoculation.
^a Median survival time of treated mice/median survival time of […]

[3] = HeLa cloning efficiency, treatment for 24 hours
[4] = 2.9 mg/kg i.p., data of 3 experiments
[5] = Homo sapiens, HeLa, 24 h, HeLa cloning efficiency, treatment for 24 hours, read-out: ID50 (the source's name)
[6] = Homo sapiens, HeLa, 24 h, 24 hours, read-out: % of controls

In the case of `COc1cccc2c1C(=O)c1c(O)c3c(c(O)c1C2=O)C[C@@](O)(C(C)=O)C[C@@H]3O[C@H]1C[C@H](N)[C@H](O)[C@H](C)O1` [Daunorubicin, reference compound], the ID50 [1, 3] is reported as 0.0083 µg/mL (≈ 0.0157 µM), the activity at 0.00625 µg/mL ([1]; Homo sapiens, HeLa, 24 h, read-out: % of controls, dose 6.25 ng/ml, 24 hours, data of 3 experiments) is reported as 66% and the IC50 ([1]; Homo sapiens, HeLa, 24 h, read-out: ID50, HeLa cloning efficiency, treatment for 24 hours) is reported as 0.009 µg/mL (≈ 0.0171 µM). The “% of controls” value ([1]; dose 3.12 ng/ml, 24 hours, data of 3 experiments) was 105% and 100% and 70%, the “% of controls” value ([1]; dose 6.25 ng/ml, 24 hours, data of 3 experiments) was 69% and 57% and the “T/C (median survival time of treated mice/median survival time of controls)” value [2, 4] was 170% and 172% and 180%. For the same compound, the Toxicity deaths [2, 4] was 0/10 and 0/6, the “T/C (median survival time of treated mice/median survival time of controls)” value ([2]; 4.4 mg/kg i.p.) was 170% and 168% and 185% and the Toxicity deaths ([2]; 4.4 mg/kg i.p.) was 1/10 and 0/6 and 0/10. For the same compound, the “T/C (median survival time of treated mice/median survival time of controls)” value ([2]; 6.6 mg/kg i.p.) was 155% and 168% and 190% and the Toxicity deaths ([2]; 6.6 mg/kg i.p.) was 6/10 and 5/5 and 4/10.
Work on `C=C1[C@@H](NC(=O)C(F)(F)F)C[C@H](O[C@H]2C[C@](O)(C(C)=O)Cc3c(O)c4c(c(O)c32)C(=O)c2c(OC)cccc2C4=O)O[C@H]1C` [IV-A, 4'-deoxy-4'-C-methylene-N-trifluoroacetyl-daunorubicin] yielded an ID50 [1, 3] of 1.3 µg/mL (≈ 2.1 µM), an IC50 [1, 5] of 1.6 µg/mL (≈ 2.58 µM) and an activity at 0.8 µg/mL ([1]; Homo sapiens, HeLa, 24 h, dose 800 ng/ml, 24 hours, read-out: % of controls) of 115%. For the same compound, the activity at 3.2 µg/mL ([1]; Homo sapiens, HeLa, 24 h, dose 3200 ng/ml, 24 hours, read-out: % of controls) was 7%, the “activity on HeLa cells cloning efficiency in vitro (in words)” value (“activity … in vitro (in words)” below) [1] was “markedly less active than daunorubicin” and the “% of controls” value ([1]; dose 800 ng/ml, 24 hours) was 116%. For the same compound, the “T/C (median survival time of treated mice/median survival time of controls)” value ([2]; 100 mg/kg i.p.) was 110%, the Toxicity deaths ([2]; 100 mg/kg i.p.) was 0/5 and the “T/C (median survival time of treated mice/median survival time of controls)” value ([2]; 200 mg/kg i.p.) was 110%. For the same compound, the Toxicity deaths ([2]; 200 mg/kg i.p.) was 0/5, the “T/C (median survival time of treated mice/median survival time of controls)” value ([2]; 400 mg/kg i.p.) was 130% and the Toxicity deaths ([2]; 400 mg/kg i.p.) was 0/3.
Compound `COc1cccc2c1C(=O)c1c(O)c3c(c(O)c1C2=O)CC(O)(C(C)=O)CC3OC1CC(N)C(C)C(C)O1` (stereo not drawn) [V-B, 4'-deoxy-4'-epi-C-methyl-daunorubicin] has an IC50 [1, 5] of 0.0077 µg/mL (≈ 0.0147 µM), an activity at 0.0062 µg/mL ([1]; Homo sapiens, HeLa, 24 h, dose 6.2 ng/ml, 24 hours, read-out: % of controls) of 54% and an activity at 0.025 µg/mL ([1]; Homo sapiens, HeLa, 24 h, dose 25 ng/ml, 24 hours, read-out: % of controls) of 4%. For the same compound, the activity at 0.1 µg/mL [1, 6] was 0%, the “activity … in vitro (in words)” value [1] was “maintained a high cytotoxic activity” and the “T/C (median survival time of treated mice/median survival time of controls)” value ([2]; 4.4 mg/kg i.p.) was 130%. The Toxicity deaths ([2]; 4.4 mg/kg i.p.) was 0/10, the “T/C (median survival time of treated mice/median survival time of controls)” value ([2]; 6.6 mg/kg i.p.) was 140% and the Toxicity deaths ([2]; 6.6 mg/kg i.p.) was 0/10. For the same compound, the “T/C (median survival time of treated mice/median survival time of controls)” value ([2]; 10.0 mg/kg i.p.) was 140% and the Toxicity deaths ([2]; 10.0 mg/kg i.p.) was 0/9.
With `COc1cccc2c1C(=O)c1c(O)c3c(c(O)c1C2=O)C[C@@](O)(C(C)=O)C[C@@H]3O[C@H]1C[C@H](N)[C@@](O)(CN)[C@H](C)O1` [V-C, 4'-C-aminomethyl-daunorubicin] the IC50 [1, 5] was 1 µg/mL (≈ 1.8 µM), the activity at 0.1 µg/mL [1, 6] was 143% and the activity at 0.4 µg/mL ([1]; Homo sapiens, HeLa, 24 h, dose 400 ng/ml, 24 hours, read-out: % of controls) was 141%. The activity at 1.6 µg/mL ([1]; Homo sapiens, HeLa, 24 h, dose 1600 ng/ml, 24 hours, read-out: % of controls) was 3.8%, the “activity … in vitro (in words)” value [1] was “markedly less active than daunorubicin” and the “T/C (median survival time of treated mice/median survival time of controls)” value ([2]; 50 mg/kg i.p.) was 181%. For the same compound, the Toxicity deaths ([2]; 50 mg/kg i.p.) was 0/6, the “T/C (median survival time of treated mice/median survival time of controls)” value ([2]; 100 mg/kg i.p.) was 172% and the Toxicity deaths ([2]; 100 mg/kg i.p.) was 0/5. For the same compound, the “T/C (median survival time of treated mice/median survival time of controls)” value ([2]; 200 mg/kg i.p.) was 204%, the Toxicity deaths ([2]; 200 mg/kg i.p.) was 0/4 and the “antitumor activity compared with daunorubicin (in words)” value ([2]; at a dose of 200 mg/kg) was “more active than daunorubicin”.

Source: patent US4393052A, “Antitumor anthracycline glycosides, their preparation, intermediates therefor, and compositions and use thereof” (priority 1980, dated 1983)
